Results as given in EP1607399B1 (priority 2000, dated 2001).

Tested on: RPMI 8322 human melanoma cells
Assay type: cell-based
Settings: read-out: µM to 50% cell viability

With `Cc1ccc(S(=O)(=O)NCCOP(=O)(N(CCCl)CCCl)N(CCCl)CCCl)cc1` [Compound 23] the IC50 was > 500 µM.
